# Assay results: patent publication US20140364449A1 (priority 2012, published 2014)
# Where two headings read alike, the source gives them in different places.
# Key:
# [1] = target: T1, mu-opioid receptor (Rattus norvegicus, UniProt P33535); format: binding
# T1 construct: expressed in transfected cells; host or cells: HEK293 cells, transient transfection
# [2] = target: T1, mu-opioid receptor; format: cell-based
# T1 sequence (P33535 whole entry): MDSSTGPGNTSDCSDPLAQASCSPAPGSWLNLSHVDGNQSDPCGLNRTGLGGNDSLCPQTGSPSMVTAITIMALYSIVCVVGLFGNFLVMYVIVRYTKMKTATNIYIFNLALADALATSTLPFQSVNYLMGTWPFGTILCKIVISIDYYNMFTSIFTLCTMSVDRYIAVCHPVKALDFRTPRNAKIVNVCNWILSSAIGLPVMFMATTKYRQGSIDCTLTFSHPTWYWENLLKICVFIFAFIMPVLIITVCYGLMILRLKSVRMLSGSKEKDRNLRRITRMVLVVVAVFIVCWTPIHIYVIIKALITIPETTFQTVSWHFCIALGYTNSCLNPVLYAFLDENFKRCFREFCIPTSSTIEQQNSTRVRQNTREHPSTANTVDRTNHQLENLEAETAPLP
smiles,measurement,setting,value
"C[C@@H](NC(=O)[C@@H](N)Cc1ccc(O)cc1)C(=O)NCC(=O)N(C)[C@@H](Cc1ccccc1)C(=O)NCCO [DAMGO, (D-Ala^2, N-MePhe^4, Gly^5-ol)-enkephalin]","Affinity and number of binding sites, pH dependence",[1],slightly (nonsignificantly) lower at pH 5.5 compared to pH 7.5
same,^3H-DAMGO Bmax,[1]; pH 5.5,14.04 fmol/mg
same,^3H-DAMGO Bmax,[1]; pH 6.5,15.50 fmol/mg
same,^3H-DAMGO Bmax,[1]; pH 7.5,23.95 fmol/mg
same,cAMP (% baseline),[2]; pH 5,43 ± 6 % baseline
same,cAMP (% baseline),[2]; pH 6.5,68 ± 9 % baseline
same,"Suppression of FSK/IBMX-stimulated cAMP, pH dependence",[2]; pH 7.5,markedly stronger at pH 5.0 than at pH 7.5
same,cAMP (% baseline),[2]; pH 7.5,82 ± 7 % baseline
